Reference: patent US12162901B2, “N-acetylated sialic acids and related sialosides” (priority 2016, dated 2024)

Key:
[1] = target: T1, BiNanH2 (Bifidobacterium longum, UniProt A0ACD7UU12); assay: HPLC-based kinetic study of BiNanH2; type: biochemical, Bifidobacterium infantis; conditions: for kcat: BiNanH2, apparent, NaOAc buffer pH 5.0, 37° C., 10 min, spread and × 10^2 on wrapped line below; for activity of BiNanH2 towards the substrate: kinetic study, HPLC
T1 sequence (A0ACD7UU12 1-394): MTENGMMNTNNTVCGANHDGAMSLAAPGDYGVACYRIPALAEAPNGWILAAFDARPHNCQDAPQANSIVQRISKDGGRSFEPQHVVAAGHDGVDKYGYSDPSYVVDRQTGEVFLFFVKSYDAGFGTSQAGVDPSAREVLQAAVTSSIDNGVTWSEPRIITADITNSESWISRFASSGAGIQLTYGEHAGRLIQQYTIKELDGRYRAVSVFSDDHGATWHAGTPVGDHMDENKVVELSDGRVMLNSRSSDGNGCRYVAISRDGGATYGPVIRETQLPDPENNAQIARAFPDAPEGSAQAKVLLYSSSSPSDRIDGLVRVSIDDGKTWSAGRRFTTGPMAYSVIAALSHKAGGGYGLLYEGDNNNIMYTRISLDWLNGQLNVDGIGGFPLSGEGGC
Method: (§1) HPLC-based assays were carried out as described above for microtiter plate-based assays. The reactions were stopped by adding 40 μL of pre-chilled ethanol. The mixtures were then centrifuged and the supernatants were analyzed by Agilent 1290 Infinity HPLC system at 315 nm. […] A C18 reverse phase Rapid Resolution High Definition column (EclipsePlusC18 RRHD 1.8 μm, 2.1×50 mm, Agilent) was used for analyzing samples with Neu5Ac9NAcα2-3GalβpNP (2.1) or Neu5,9Ac2α2-6GalβpNP (2.20).
(§2) The reactions were stopped by adding 40 μL of pre-chilled ethanol. The mixtures were then centrifuged and the supernatants were analyzed by the HPLC system described above for HPLC-based assays. Apparent kinetic parameters were obtained by varying substrate concentrations from 0.1-40 mM (0.1, 0.2, 0.4, 1, 2, 4, 10, 20, and 40 mM) and fitting the data (the average values of duplicate assay results) into the Michaelis-Menten equation using Grafit 5.0.

[2] = target: T2, SpNanC (Streptococcus pneumoniae, UniProt A0A0H2UQE4); assay: HPLC-based kinetic study of SpNanC; type: biochemical; conditions: for kcat: SpNanC, apparent, MES buffer pH 6.5, 37° C., 10 min, spread and × 10^2 on wrapped line below
Method: as §1
as §2, with “After stopping the” for “The”, “reactions” for “reactions were stopped”, “ethanol, the” for “ethanol. The”, “were” for “were then”, “system as” for “system”, “above.” for “above for HPLC-based assays.”

[3] = target: T2, SpNanC; assay: Sialidase substrate specificity of Leg glycosides (HPLC/capillary electrophoresis), SpNanC; type: biochemical; conditions: 37° C., 16 hs, pH 6.5
[4] = target: T1, BiNanH2; assay: Sialidase substrate specificity of Leg glycosides (HPLC/capillary electrophoresis), BiNanH2; type: biochemical, Bifidobacterium infantis; conditions: 37° C., 16 hs, pH 5.0
[5] = target: C. perfringens sialidase (CpNanH) (Clostridium perfringens, UniProt P10481); type: biochemical; conditions: 37° C., 16 hs, pH 5.0
[6] = system: A. ureafaciens sialidase; assay: Sialidase substrate specificity of Leg glycosides (HPLC/capillary electrophoresis), A. ureafaciens sialidase; type: biochemical, Arthrobacter ureafaciens; conditions: pH 5.5
[7] = target: T3, human cytosolic sialidase hNEU2 (Homo sapiens, UniProt Q9Y3R4); assay: Sialidase substrate specificity of Leg glycosides (HPLC/capillary electrophoresis), hNEU2; type: biochemical; conditions: 37° C., 16 hs, pH 5.0
T3 construct: made in house

[8] = target: T4, SpNanA (Streptococcus pneumoniae, UniProt P62575); assay: Sialidase substrate specificity of Leg glycosides (HPLC/capillary electrophoresis), SpNanA; type: biochemical; conditions: 37° C., 16 hs, pH 6.0
T4 construct: made in house

[9] = target: T5, V. cholerae sialidase (Vibrio cholerae serotype O1, UniProt P0C6E9); assay: Sialidase substrate specificity of Leg glycosides (HPLC/capillary electrophoresis), V. cholerae sialidase; type: biochemical; conditions: pH 5.5
T5 construct: purchased Roche

[10] = target: T6, SpNanB (Streptococcus pneumoniae serotype 4, UniProt Q54727, E68D/K536E/K577E/N393D/S59P); assay: Sialidase substrate specificity of Leg glycosides (HPLC/capillary electrophoresis), SpNanB; type: biochemical; conditions: 37° C., 16 hs, pH 6.0
T6 construct: made in house

T3 sequence (Q9Y3R4 whole entry): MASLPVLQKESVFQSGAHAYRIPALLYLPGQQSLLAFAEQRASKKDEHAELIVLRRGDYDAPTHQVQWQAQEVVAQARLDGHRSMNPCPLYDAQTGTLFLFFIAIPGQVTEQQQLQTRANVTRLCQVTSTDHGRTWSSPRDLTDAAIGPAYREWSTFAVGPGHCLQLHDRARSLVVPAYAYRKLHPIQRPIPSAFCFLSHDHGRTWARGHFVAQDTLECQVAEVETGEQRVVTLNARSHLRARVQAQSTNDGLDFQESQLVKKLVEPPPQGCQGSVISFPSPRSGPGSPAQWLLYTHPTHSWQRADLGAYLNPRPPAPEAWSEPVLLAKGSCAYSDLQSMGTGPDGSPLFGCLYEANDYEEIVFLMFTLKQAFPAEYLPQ

CC(=O)N[C@H]1[C@H]([C@H](O)[C@H](O)CO)O[C@@](O[C@H]2[C@@H](O)[C@@H](CO)O[C@@H](Oc3ccc([N+](=O)[O-])cc3)[C@@H]2O)(C(=O)O)C[C@@H]1O [2.17, Neu5Acα2-3GalβpNP]
kcat [1]: (1.66 × 10^2 s^−1
kcat [2]: (3.65 × 10^2 s^−1

CC(=O)NC[C@@H](O)[C@@H](O)[C@@H]1O[C@@](O[C@H]2[C@@H](O)[C@@H](CO)O[C@@H](Oc3ccc([N+](=O)[O-])cc3)[C@@H]2O)(C(=O)O)C[C@H](O)[C@H]1NC(C)=O [2.1, 4-Nitrophenyl O-(5,9-diacetamido-3,5,9-trideoxy-D-glycero-α-D-galacto-2-nonulopyranosylonic acid)-(2→3)-O-β-D-galactopyranoside]
kcat [1]: (1.08 × 10^2 s^−1
kcat [2]: (3.38 × 10^2 s^−1

C[C@@H](O)[C@@H](N=[N+]=[N-])C1O[C@@](OCC2O[C@@H](Oc3ccc([N+](=O)[O-])cc3)C(O)C(O)[C@H]2O)(C(=O)O)CC(O)[C@H]1N=[N+]=[N-] (stereo partly drawn) [3-14, Leg5,7diN3α2-6GalβpNP]
activity of SpNanC for the compound [3]: did not show activity
activity of BiNanH2 for the compound [4]: did not show activity
activity of C. perfringens sialidase (CpNanH) for the compound [5]: did not show activity
activity of A. ureafaciens sialidase for the compound [6]: did not show activity
activity of hNEU2 for the compound [7]: did not show activity
activity of SpNanA for the compound [8]: did not show activity
activity of V. cholerae sialidase for the compound [9]: did not show activity
activity of SpNanB for the compound [10]: did not show activity

CC(=O)N[C@@H]1C(O)C[C@](OCC2O[C@@H](Oc3ccc([N+](=O)[O-])cc3)C(O)C(O)[C@H]2O)(C(=O)O)OC1[C@H](NC(C)=O)[C@@H](C)O (stereo partly drawn) [3-20, Leg5,7Ac2α2-6GalβpNP]
activity of SpNanC for the compound [3]: did not show activity
activity of BiNanH2 for the compound [4]: did not show activity
activity of C. perfringens sialidase (CpNanH) for the compound [5]: did not show activity
activity of A. ureafaciens sialidase for the compound [6]: did not show activity
activity of hNEU2 for the compound [7]: did not show activity
activity of SpNanA for the compound [8]: did not show activity
activity of V. cholerae sialidase for the compound [9]: did not show activity
activity of SpNanB for the compound [10]: did not show activity

CC(=O)NC[C@@H](O)[C@@H](O)[C@@H]1O[C@@](OC[C@H]2O[C@@H](Oc3ccc([N+](=O)[O-])cc3)[C@H](O)[C@@H](O)[C@H]2O)(C(=O)O)C[C@H](O)[C@H]1NC(C)=O [2.8, 4-Nitrophenyl O-(5,9-diacetamido-3,5,9-trideoxy-D-glycero-α-D-galacto-2-nonulopyranosylonic acid)-(2→6)-O-β-D-galactopyranoside]
kcat [1]: (8.07 × 10^2 s^−1

CC(=O)NC1C(O)CC(OCC2OC(Oc3ccc([N+](=O)[O-])cc3)C(O)C(O)C2O)(C(=O)O)OC1C(O)C(O)COC(C)=O (stereo not drawn) [2.20, Neu5,9Ac2α2-6GalβpNP]
activity of BiNanH2 towards the substrate [1]: not high enough for obtaining apparent kinetics parameters

CC(=O)N[C@H]1[C@H]([C@H](O)[C@H](O)CO)O[C@@](OC[C@H]2O[C@@H](Oc3ccc([N+](=O)[O-])cc3)[C@H](O)[C@@H](O)[C@H]2O)(C(=O)O)C[C@@H]1O [2.18, Neu5Acα2-6GalβpNP]
kcat [1]: (3.31 × 10^2 s^−1

CC(=O)N[C@H]1[C@H]([C@H](O)[C@H](O)COC(C)=O)O[C@@](O[C@H]2[C@@H](O)[C@@H](CO)O[C@@H](Oc3ccc([N+](=O)[O-])cc3)[C@@H]2O)(C(=O)O)C[C@@H]1O [2.19, Neu5,9Ac2α2-3GalβpNP]
activity of BiNanH2 towards the substrate [1]: not high enough for obtaining apparent kinetics parameters
catalytic efficiency of SpNanC, fold higher than for 2.1 and 2.17 ([2]; SpNanC kcat/KM ratio): 2.2-2.3 fold
kcat [2]: (3.78 × 10^2 s^−1
